Reference: the NIST ThermoML archive (doi:10.1016/j.jct.2015.02.024)
± gives the expanded uncertainty stated by the source.

Test: activity coefficient (dimensionless); of the first substance listed, at infinite dilution; xn = mol fraction of the nth substance listed
Settings: 101 kPa, Liquid, Chromatography, x1 = 0

Row | SMILES | activity coefficient (318.15 K) | activity coefficient (328.15 K) | activity coefficient (338.15 K) | activity coefficient (348.15 K) | activity coefficient (358.15 K) | activity coefficient (368.15 K) | activity coefficient (298.15 K) | activity coefficient (308.15 K)
1 | CCC(=O)OC [methyl propanoate] + C[N+]1(CCCO)CCOCC1.O=S(=O)([N-]S(=O)(=O)C(F)(F)F)C(F)(F)F | 1.45 ± 0.1 | 1.51 ± 0.1 | 1.57 ± 0.1 | 1.63 ± 0.11 | 1.68 ± 0.11 | 1.74 ± 0.12 |  | 
2 | C=Cc1ccccc1 [styrene] + C[N+]1(CCCO)CCOCC1.O=S(=O)([N-]S(=O)(=O)C(F)(F)F)C(F)(F)F | 3.45 ± 0.23 | 3.51 ± 0.24 | 3.58 ± 0.24 | 3.66 ± 0.25 | 3.72 ± 0.25 | 3.78 ± 0.26 |  | 
3 | COC(C)(C)C [2-methoxy-2-methylpropane] + C[N+]1(CCCO)CCOCC1.O=S(=O)([N-]S(=O)(=O)C(F)(F)F)C(F)(F)F | 4.94 ± 0.34 | 5.07 ± 0.35 | 5.22 ± 0.36 | 5.35 ± 0.36 | 5.45 ± 0.37 | 5.58 ± 0.38 |  | 
4 | CCOC(C)(C)C [2-ethoxy-2-methylpropane] + C[N+]1(CCCO)CCOCC1.O=S(=O)([N-]S(=O)(=O)C(F)(F)F)C(F)(F)F | 16.1 ± 1.1 | 15.8 ± 1.1 | 15.6 ± 1.1 | 15.2 ± 1 | 15 ± 1 | 14.8 ± 1 |  | 
5 | c1ccccc1 [benzene] + C[N+]1(CCCO)CCOCC1.O=S(=O)([N-]S(=O)(=O)C(F)(F)F)C(F)(F)F | 2.53 ± 0.17 | 2.56 ± 0.17 | 2.58 ± 0.18 | 2.6 ± 0.18 | 2.63 ± 0.18 | 2.65 ± 0.18 |  | 
6 | CCCOCCC [dipropyl ether] + C[N+]1(CCCO)CCOCC1.O=S(=O)([N-]S(=O)(=O)C(F)(F)F)C(F)(F)F | 20.1 ± 1.4 | 19.5 ± 1.3 | 18.9 ± 1.3 | 18.4 ± 1.3 | 17.9 ± 1.2 | 17.4 ± 1.2 |  | 
7 | c1ccsc1 [thiophene] + C[N+]1(CCCO)CCOCC1.O=S(=O)([N-]S(=O)(=O)C(F)(F)F)C(F)(F)F | 1.89 ± 0.13 | 1.92 ± 0.13 | 1.95 ± 0.13 | 1.98 ± 0.13 | 2 ± 0.14 | 2.03 ± 0.14 |  | 
8 | C#CCCC [1-pentyne] + C[N+]1(CCCO)CCOCC1.O=S(=O)([N-]S(=O)(=O)C(F)(F)F)C(F)(F)F | 7.77 ± 0.53 | 7.48 ± 0.51 | 7.24 ± 0.49 | 6.99 ± 0.48 | 6.79 ± 0.46 | 6.63 ± 0.45 |  | 
9 | CCc1ccccc1 [ethylbenzene] + C[N+]1(CCCO)CCOCC1.O=S(=O)([N-]S(=O)(=O)C(F)(F)F)C(F)(F)F | 7.33 ± 0.5 | 7.28 ± 0.5 | 7.22 ± 0.49 | 7.18 ± 0.49 | 7.13 ± 0.49 | 7.09 ± 0.48 |  | 
10 | O [water] + C[N+]1(CCCO)CCOCC1.O=S(=O)([N-]S(=O)(=O)C(F)(F)F)C(F)(F)F | 1.43 ± 0.09 | 1.36 ± 0.09 | 1.28 ± 0.08 | 1.21 ± 0.08 | 1.15 ± 0.07 | 1.1 ± 0.07 |  | 
11 | C1CCOC1 [tetrahydrofuran] + C[N+]1(CCCO)CCOCC1.O=S(=O)([N-]S(=O)(=O)C(F)(F)F)C(F)(F)F | 0.968 ± 0.061 | 1.03 ± 0.06 | 1.08 ± 0.07 | 1.12 ± 0.07 | 1.18 ± 0.08 | 1.23 ± 0.08 |  | 
12 | C1CCCCC1 [cyclohexane] + C[N+]1(CCCO)CCOCC1.O=S(=O)([N-]S(=O)(=O)C(F)(F)F)C(F)(F)F | 66 ± 4.5 | 55.7 ± 3.8 | 48.3 ± 3.3 | 42.2 ± 2.9 | 36.3 ± 2.5 | 32.2 ± 2.2 |  | 
13 | C=CCCC [1-pentene] + C[N+]1(CCCO)CCOCC1.O=S(=O)([N-]S(=O)(=O)C(F)(F)F)C(F)(F)F | 38.3 ± 2.6 | 30.6 ± 2.1 |  |  |  |  | 64.5 ± 4.4 | 49.4 ± 3.4
14 | C1COCCO1 [1,4-dioxane] + C[N+]1(CCCO)CCOCC1.O=S(=O)([N-]S(=O)(=O)C(F)(F)F)C(F)(F)F | 0.6 ± 0.042 | 0.653 ± 0.045 | 0.709 ± 0.047 | 0.758 ± 0.05 | 0.811 ± 0.052 | 0.859 ± 0.055 |  | 
15 | CC(C)O [propan-2-ol] + C[N+]1(CCCO)CCOCC1.O=S(=O)([N-]S(=O)(=O)C(F)(F)F)C(F)(F)F | 1.83 ± 0.12 | 1.78 ± 0.12 | 1.74 ± 0.12 | 1.71 ± 0.11 | 1.67 ± 0.11 | 1.64 ± 0.11 |  | 
16 | c1ccncc1 [pyridine] + C[N+]1(CCCO)CCOCC1.O=S(=O)([N-]S(=O)(=O)C(F)(F)F)C(F)(F)F | 0.414 ± 0.034 | 0.461 ± 0.036 | 0.501 ± 0.038 | 0.55 ± 0.04 | 0.593 ± 0.042 | 0.639 ± 0.044 |  | 
17 | CC#N [acetonitrile] + C[N+]1(CCCO)CCOCC1.O=S(=O)([N-]S(=O)(=O)C(F)(F)F)C(F)(F)F | 0.479 ± 0.037 | 0.495 ± 0.038 | 0.513 ± 0.038 | 0.528 ± 0.039 | 0.545 ± 0.04 | 0.561 ± 0.04 |  | 
18 | CCCO [propan-1-ol] + C[N+]1(CCCO)CCOCC1.O=S(=O)([N-]S(=O)(=O)C(F)(F)F)C(F)(F)F | 2.06 ± 0.14 | 2.01 ± 0.14 | 1.96 ± 0.13 | 1.92 ± 0.13 | 1.88 ± 0.13 | 1.84 ± 0.12 |  | 
19 | CC(C)(C)O [2-methylpropan-2-ol] + C[N+]1(CCCO)CCOCC1.O=S(=O)([N-]S(=O)(=O)C(F)(F)F)C(F)(F)F | 2.09 ± 0.14 | 2.06 ± 0.14 | 2.03 ± 0.14 | 2 ± 0.14 | 1.97 ± 0.13 | 1.95 ± 0.13 |  | 
20 | C=CCCCCC [1-heptene] + C[N+]1(CCCO)CCOCC1.O=S(=O)([N-]S(=O)(=O)C(F)(F)F)C(F)(F)F | 86.6 ± 5.9 | 75.8 ± 5.2 | 69.3 ± 4.7 | 62.2 ± 4.3 | 55.7 ± 3.8 | 51.1 ± 3.5 |  | 
21 | COC(C)=O [methyl ethanoate] + C[N+]1(CCCO)CCOCC1.O=S(=O)([N-]S(=O)(=O)C(F)(F)F)C(F)(F)F | 0.926 ± 0.059 | 0.971 ± 0.061 | 1.02 ± 0.06 | 1.06 ± 0.07 | 1.1 ± 0.07 | 1.14 ± 0.07 |  | 
22 | CCCCO [butan-1-ol] + C[N+]1(CCCO)CCOCC1.O=S(=O)([N-]S(=O)(=O)C(F)(F)F)C(F)(F)F | 3.23 ± 0.22 | 3.07 ± 0.21 | 2.96 ± 0.2 | 2.84 ± 0.19 | 2.73 ± 0.19 | 2.64 ± 0.18 |  | 
23 | CCOC(C)=O [ethyl acetate] + C[N+]1(CCCO)CCOCC1.O=S(=O)([N-]S(=O)(=O)C(F)(F)F)C(F)(F)F | 1.5 ± 0.1 | 1.56 ± 0.1 | 1.61 ± 0.11 | 1.66 ± 0.11 | 1.7 ± 0.11 | 1.77 ± 0.12 |  | 
24 | CCC(C)CC [3-methylpentane] + C[N+]1(CCCO)CCOCC1.O=S(=O)([N-]S(=O)(=O)C(F)(F)F)C(F)(F)F | 152 ± 10 |  |  |  |  |  | 273 ± 19 | 201 ± 14
